From patent US20230065745A1, “PIPERIDINE-2,6-DIONE DERIVATIVES WHICH BIND TO CEREBLON, AND METHODS OF USE THEREOF” (Captor Therapeutics S.A., priority 2019, published 2023)

Target: CRBN-DDB1 protein complex (Homo sapiens, UniProt Q96SW2)
Assay: Fluorescence Polarization (FP) assay, displacement of Cy5-labelled thalidomide
Details: 25 nM CRBN-DDB1, 5 nM Cy5-labelled thalidomide, read-out: CRBN binding Ki
Method: CRBN-DDB1 protein complex was mixed with Cy5-labelled thalidomide and a compound to be tested (the “test compound”). […] The test solution was added to a 384-well assay plate.
The plate was spun-down (1 min, 1000 rpm, 22° C.) and then shaken using a VibroTurbulator for 10 min at room temperature (20-25° C.), with the frequency set to level 3. The assay plate with protein and the tracer was incubated for 60 min at room temperature (20-25° C.) prior to read-out with a plate reader.
The FP experiment was carried out with various concentrations of the test compounds in order to measure Ki values.

CRBN-DDB1 protein complex, sequence (Q96SW2 whole entry): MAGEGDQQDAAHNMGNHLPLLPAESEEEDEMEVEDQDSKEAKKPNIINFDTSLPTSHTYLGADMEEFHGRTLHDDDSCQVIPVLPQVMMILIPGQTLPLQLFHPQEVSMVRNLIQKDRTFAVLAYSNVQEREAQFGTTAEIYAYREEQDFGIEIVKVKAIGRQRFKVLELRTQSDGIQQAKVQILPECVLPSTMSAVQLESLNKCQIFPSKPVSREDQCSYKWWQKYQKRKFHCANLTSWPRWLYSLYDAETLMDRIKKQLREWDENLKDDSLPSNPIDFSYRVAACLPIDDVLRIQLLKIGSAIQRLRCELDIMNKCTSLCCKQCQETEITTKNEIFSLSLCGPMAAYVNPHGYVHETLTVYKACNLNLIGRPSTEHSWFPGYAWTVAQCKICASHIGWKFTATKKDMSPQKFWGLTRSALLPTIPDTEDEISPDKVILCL
CRBN-DDB1 protein complex, sequence (Q16531 whole entry partner): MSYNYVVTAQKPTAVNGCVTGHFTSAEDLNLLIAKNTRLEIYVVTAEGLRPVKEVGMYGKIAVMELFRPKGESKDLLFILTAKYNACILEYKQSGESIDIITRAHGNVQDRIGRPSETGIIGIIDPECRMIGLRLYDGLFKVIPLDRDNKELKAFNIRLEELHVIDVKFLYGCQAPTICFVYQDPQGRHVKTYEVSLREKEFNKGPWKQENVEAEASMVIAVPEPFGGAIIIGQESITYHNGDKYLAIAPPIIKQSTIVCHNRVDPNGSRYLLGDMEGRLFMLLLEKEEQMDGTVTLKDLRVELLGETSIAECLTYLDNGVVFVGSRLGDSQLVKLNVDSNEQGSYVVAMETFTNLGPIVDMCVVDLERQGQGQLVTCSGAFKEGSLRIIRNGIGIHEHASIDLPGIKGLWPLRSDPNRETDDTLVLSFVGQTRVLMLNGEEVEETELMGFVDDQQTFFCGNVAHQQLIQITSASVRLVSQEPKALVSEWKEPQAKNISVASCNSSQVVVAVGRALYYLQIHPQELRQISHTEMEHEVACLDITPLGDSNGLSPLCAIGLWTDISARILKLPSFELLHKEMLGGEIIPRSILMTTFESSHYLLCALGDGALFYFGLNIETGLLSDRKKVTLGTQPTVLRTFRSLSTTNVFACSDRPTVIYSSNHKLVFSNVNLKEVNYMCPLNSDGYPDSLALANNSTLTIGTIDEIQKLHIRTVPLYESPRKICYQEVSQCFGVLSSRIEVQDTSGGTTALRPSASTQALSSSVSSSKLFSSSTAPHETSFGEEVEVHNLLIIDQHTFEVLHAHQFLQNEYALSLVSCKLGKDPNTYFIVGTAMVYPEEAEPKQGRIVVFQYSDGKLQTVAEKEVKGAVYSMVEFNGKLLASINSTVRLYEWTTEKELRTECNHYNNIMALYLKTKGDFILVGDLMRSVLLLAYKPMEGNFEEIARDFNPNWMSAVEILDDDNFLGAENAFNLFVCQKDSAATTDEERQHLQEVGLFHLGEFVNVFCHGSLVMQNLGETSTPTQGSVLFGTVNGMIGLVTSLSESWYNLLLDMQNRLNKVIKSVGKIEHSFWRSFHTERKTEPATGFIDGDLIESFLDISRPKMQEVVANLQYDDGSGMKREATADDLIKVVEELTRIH

| SMILES | Ki |
| --- | --- |
| CCOc1oc(C)nc1C(=O)NC1CCC(=O)NC1=O (centres unmarked) [Compound 68, N-(2,6-dioxopiperidin-3-yl)-5-ethoxy-2-methyloxazole-4-carboxamide] | 10 to 50 µM |
| O=C1CCC(NC(=O)c2csc(=O)[nH]2)C(=O)N1 (centres unmarked) [Compound 15, N-(2,6-dioxopiperidin-3-yl)-2-oxo-2,3-dihydrothiazole-4-carboxamide] | 5 to 10 µM |
| CC(C)(C)OC(=O)NCc1csc(C(=O)NC2CCC(=O)NC2=O)c1 (centres unmarked) [Compound 51, tert-butyl ((5-((2,6-dioxopiperidin-3-yl)carbamoyl)thiophen-3-yl)methyl)carbamate] | < 5 µM |
| O=C1CCC(NC(=O)c2c[nH]c3ncc(Cl)cc23)C(=O)N1 (centres unmarked) [Compound 99, 5-chloro-N-(2,6-dioxopiperidin-3-yl)-1H-pyrrolo[2,3-b]pyridine-3-carboxamide] | 5 to 10 µM |
| O=C1CCC(NC(=O)c2c[nH]c3nccc(Cl)c23)C(=O)N1 (centres unmarked) [Compound 97, 4-chloro-N-(2,6-dioxopiperidin-3-yl)-1H-pyrrolo[2,3-b]pyridine-3-carboxamide] | 5 to 10 µM |
| O=C1CCC(NC(=O)c2sc(Br)c3cccnc23)C(=O)N1 (centres unmarked) [Compound 96] | < 5 µM |
| O=C1CCC(NC(=O)c2ccoc2C2CC2)C(=O)N1 (centres unmarked) [Compound 47, 2-cyclopropyl-N-(2,6-dioxopiperidin-3-yl)furan-3-carboxamide] | 10 to 50 µM |
| Nc1ncc(C(=O)NC2CCC(=O)NC2=O)s1 (centres unmarked) [Compound 112, 2-amino-N-(2,6-dioxopiperidin-3-yl)thiazole-5-carboxamide] | 5 to 10 µM |
| CC(C)(C)OC(=O)NCc1sccc1C(=O)NC1CCC(=O)NC1=O (centres unmarked) [Compound 63, tert-butyl ((3-((2,6-dioxopiperidin-3-yl)carbamoyl)thiophen-2-yl)methyl)carbamate] | 10 to 50 µM |
| CNc1scnc1C(=O)NC1CCC(=O)NC1=O (centres unmarked) [Compound 78, N-(2,6-dioxopiperidin-3-yl)-5-(methylamino)thiazole-4-carboxamide] | 10 to 50 µM |
| COc1scc(C)c1C(=O)NC1CCC(=O)NC1=O (centres unmarked) [Compound 29, N-(2,6-dioxopiperidin-3-yl)-2-methoxy-4-methylthiophene-3-carboxamide] | 5 to 10 µM |

Continued, values first:

| Ki | SMILES |
| --- | --- |
| < 5 µM | COc1sc(C(C)(C)C)cc1C(=O)NC1CCC(=O)NC1=O (centres unmarked) [Compound 35, 5-(tert-butyl)-N-(2,6-dioxopiperidin-3-yl)-2-methoxythiophene-3-carboxamide] |
| 10 to 50 µM | NCc1csc(C(=O)NC2CCC(=O)NC2=O)c1 (centres unmarked) [Compound 52, 4-(aminomethyl)-N-(2,6-dioxopiperidin-3-yl)thiophene-2-carboxamide] |
| < 5 µM | COc1sc(-c2ccccc2)cc1C(=O)NC1CCC(=O)NC1=O (centres unmarked) [Compound 33, N-(2,6-dioxopiperidin-3-yl)-2-methoxy-5-phenylthiophene-3-carboxamide] |
| 10 to 50 µM | O=C1CCC(NC(=O)c2ncsc2C2CC2)C(=O)N1 (centres unmarked) [Compound 82, 5-Cyclopropyl-N-(2,6-dioxopiperidin-3-yl)thiazole-4-carboxamide] |
| 10 to 50 µM | O=C1CCC(NC(=O)c2ccsc2-n2cccn2)C(=O)N1 (centres unmarked) [Compound 39, N-(2,6-dioxopiperidin-3-yl)-2-(1H-pyrazol-1-yl)thiophene-3-carboxamide] |
| 10 to 50 µM | O=C1CCC(NC(=O)c2ccsc2C2CC2)C(=O)N1 (centres unmarked) [Compound 66, 2-cyclopropyl-N-(2,6-dioxopiperidin-3-yl)thiophene-3-carboxamide] |
| < 5 µM | COc1sc(C2CC2)cc1C(=O)NC1CCC(=O)NC1=O (centres unmarked) [Compound 32, 5-cyclopropyl-N-(2,6-dioxopiperidin-3-yl)-2-methoxythiophene-3-carboxamide] |
| < 5 µM | COc1sc(C)cc1C(=O)NC1CCC(=O)NC1=O (centres unmarked) [Compound 30, N-(2,6-dioxopiperidin-3-yl)-2-methoxy-5-methylthiophene-3-carboxamide] |
| < 5 µM | CC(C)(C)OC(=O)NCc1ccc(C(=O)NC2CCC(=O)NC2=O)s1 (centres unmarked) [Compound 49, tert-butyl ((5-((2,6-dioxopiperidin-3-yl)carbamoyl)thiophen-2-yl)methyl)carbamate] |
